This is an account of results in patent publication US10485846B2, “Collagenase-derived peptides promote tissue regeneration and wound healing” (Tufts University, priority 2014, dated 2019).

Assay [1] has as its system human microvascular endothelial cells. The assay is described as follows: Human microvascular endothelial cell proliferation (coulter counter cell count). It counts as cell-based. The conditions noted are these: for endothelial cell proliferation relative to control: 100 nM peptides every other day, counted day 5 post-plating (FIG. 2); for endothelial growth-promoting activity compared with fibroblast growth factor 2 (FGF2): FIG. 2. As for the experimental part:
Human microvascular endothelial cells were plated at low density in multi-well plates and treated with 100 nM peptides every other day. At day 5 post-plating the cells were counted using a coulter counter. Cell proliferation relative to control is shown. *statistical significance (p<0.05).
(§1) In our efforts aimed at characterizing the growth-promoting, migration-enhancing and angiogenesis-inducing activities embodied in SANTYL® collagenase Ointment and in an effort focused on contrasting the efficacy of collagenase vs. the newly-discovered SANTYL® collagenase API-derived bioactive wound healing peptide(s), we continue to perform a battery of pre-clinical tests and trials using the well-established models of injury and repair developed, here, at Tufts University School of Medicine and the Center for Innovations in Wound Healing Research. To these ends, we took advantage of the 2D and 3D injury/repair models developed to quantify cellular responses to injury. […] This is especially noteworthy since these peptides not only promote vascular endothelial growth but, adult human keratinocyte growth.

In assay [2] the test system is adult human keratinocytes. The experiment in a line: Scratch wound closure / post-injury migration of keratinocyte monolayer. Format: cell-based. To be noted: 10 nM peptide, monitored 0, 1, 3 and 5 hours post-injury (FIG. 5). As for the experimental part: Adult human keratinocytes were plated into glass-bottom well plates at high density. Scratch wounds were made in the cell monolayer 24 h post-plating. The peptides dissolved in keratinocyte growth media (10 nM) were applied immediately after wounding. Wound closure was monitored at 0, 1, 3 and 5 hours post-injury. Dashed line outlines the wounds. Representative images of wounds treated with TSN2 and TSN6 are shown.
Human epidermis-derived keratinocytes were plated at a post-confluent density prior to mechanical injury in the presence or absence of bioactive wound healing peptides or control entities.

Assay [3] relates to adult human keratinocytes. The assay is described as follows: Adult human keratinocyte proliferation (coulter counter cell count). Format: cell-based. The conditions noted are these: FIG. 3B, PK vs. peptides. The procedure: Adult human keratinocytes were plated at low density in multi-well plates and treated with 10 nM peptides (FIG. 3A) or 1-100 nM peptides (FIG. 3B) every other day. At day 7 post-plating the cells were counted using a coulter counter. Cell proliferation relative to control (FIG. 3A) or absolute cell number grown (FIG. 3B) are shown. *statistical significance (p<0.05).
as §1

Assay [4] has as its system human microvascular endothelial cells. The assay is described as follows: In vitro angiogenesis / tube formation on growth factor-reduced Matrigel. It counts as cell-based. To be noted: 100 nM peptide in Matrigel and media (FIG. 4). As for the experimental part:
ECM-derived peptides were dissolved in growth factor-reduced Matrigel at 100 nM, the matrix was allowed to polymerize, human microvascular endothelial cells were plated either in control low serum containing media or media containing 100 nM peptides. Representative images of cells treated with endothelial ECM-derived peptides are shown.
Function-specific domains present within TSN1/2 and the newly-engineered “combinatorial” peptides present within TSN 10 are able to promote in vitro angiogenesis. TSN peptides promote morphogenesis and angiogenic activation by stimulating migration, proliferation and tube formation; peptide-stimulated endothelial tubes are more numerous, of greater length, having more branch points then control treated endothelial cell cultures.

The subject of a further assay is cranial cutaneous wounds. The experiment in a line: Cranial cutaneous excisional wound healing in cyclophosphamide-treated mice (impaired healing model). It counts as in vivo, Balb/c mice. To be noted: peptide in CMC applied daily days 1-5, day 6 post-injury; vs untreated control or collagenase (FIGS. 7-8). As for the experimental part:
Balb/c mice were pre-treated with cyclophosphamide at 150 mg/kg 3 days prior to injury and with 100 mg/kg cyclophosphamide 1 day before injury. Cranial cutaneous wounds were created using 4 mm punch biopsy tool and immediately covered with adherent transparent dressing (TEGADERM™). The peptides were prepared fresh daily and injected under the dressing on days 1-5 post injury. On day 6 after wounding the animals were sacrificed according to Division of Laboratory Animal Medicine (DLAM) approved procedures. Wounds together with surrounding healthy tissues were excised, cut in half along the midline and either fixed in 4% phosphate buffered formaldehyde or frozen in OCT for further processing. […]
Wounds were created, treated as described in FIG. 6 and scored in a blind manner according to the grading described in Table 2. * indicates statistical significance of findings (p<0.05).
Wounds were created and treated as described in FIG. 1. Wound epithelialization was measured at day 6 post wounding. ** indicate statistical significance of findings (p<0.05). […]
Following cyclophosphamide treatment, animals were injured and then wounds treated/covered. Test entities were coded so that the nature of the experiment was blinded to the investigator; and, each specimen was evaluated and scored blindly according to the wound healing system shown in Table 2, prior to unmasking the experimental code. […]

Turning to “MENAELDVPIQSVFTR (listed as Homo sapiens) [TSN2, 16 aa peptide; origin Thrombospondin-1 N-terminal domain]”, in assay [1], the “endothelial cell proliferation relative to control” value is “stimulate human dermally-derived microvascular endothelial cell growth in vitro” and the “endothelial growth-promoting activity compared with fibroblast growth factor 2 (FGF2)” value is “exceed the growth-promoting activity embodied in fibroblast growth factor 2 (FGF2)”. In assay [2], the “keratinocyte migration in response to scratch injury (wound closure)” value is on record as “marked migration-enhancing activity”. Also, the “keratinocyte growth-promoting activity compared with PK SANTYL collagenase API” value in assay [3] is “completely accounting for the keratinocyte growth-promoting activity present within PK SANTYL collagenase API”. Further, the “in vitro angiogenesis (tube formation)” value in assay [4] is listed as “angiogenesis-inducing activity”.

Regarding “NFQGVQNRFVFGTP (listed as Homo sapiens) [TSN1, 14 aa peptide; origin Thrombospondin-1 Laminin G-like domain]”, in assay [1], the “endothelial cell proliferation relative to control” value is “stimulate human dermally-derived microvascular endothelial cell growth in vitro” and the “endothelial growth-promoting activity compared with fibroblast growth factor 2 (FGF2)” value was “exceed the growth-promoting activity embodied in fibroblast growth factor 2 (FGF2)”. The “keratinocyte growth-promoting activity compared with PK SANTYL collagenase API” value in assay [3] is reported as “completely accounting for the keratinocyte growth-promoting activity present within PK SANTYL collagenase API”. Also, the “in vitro angiogenesis (tube formation)” value in assay [4] is “markedly promoted in vitro angiogenesis”.

“TGQSYNQYSQRPYLGVYVFK (listed as Homo sapiens) [TSN10, 20 aa combinatorial peptide; Combination of Thrombospondin and multimerin peptides]”: the “keratinocyte growth-promoting activity compared with PK SANTYL collagenase API” value in assay [3] was “completely accounting for the keratinocyte growth-promoting activity present within PK SANTYL collagenase API”. Moreover, the “in vitro angiogenesis (tube formation)” value in assay [4] was “markedly promoted in vitro angiogenesis”.

As to “HSPDIQLQKGLTFEPIQIK (listed as Homo sapiens) [TSN6, 19 aa peptide; origin Multimerin-1 Coiled coil domain]”, in the assay with cranial cutaneous wounds, the “wound healing in vivo (wound score, Table 2 grading; wound closure)” value is “markedly stimulated to heal wounds”. Also, the “keratinocyte migration in response to scratch injury (wound closure)” value in assay [2] is “marked migration-enhancing activity”.

For the sequence “RPGPSPEGTGQSYNYR (listed as Homo sapiens) [TSN8, 16 aa peptide]”, the “in vitro angiogenesis (tube formation)” value in assay [4] is on record as “markedly promoted in vitro angiogenesis”.
